From patent EP1484329A1, “Indole derivatives with apoptosis inducing activity” (Zentaris GmbH, priority 2003, dated 2004)
In brackets after ≈: the same amount, converted by molar mass. Like-named read-outs stand apart in the source and are kept apart here.

What was measured:
NCI-H460 = experiment: XTT proliferation assay, NCI-H460; assay type: cell-based; conditions: Homo sapiens, read-out: XTT Proliferationsassay, EC50 NCI-H460
Text: (§1) Die Substanzen 1,2, 4-6 wurden in einem Proliferationstest an etablierten Tumorzelllinien auf ihre anti-proliferative Aktivität hin untersucht (D.A. Scuderio et al. Cancer Res. 1988, 48, 4827-4833). Der verwendete Test bestimmt die zelluläre Dehydrogenase-Aktivität und ermöglicht eine Bestimmung der Zellvitalität und indirekt der Zellzahl. Bei den verwendeten Zelllinien handelt es sich um die humane Cervixkarzinom Zelllinie KB/HeLa (ATCC CCL17), die ovariale Adenokarzinomzelllinie SKOV-3 (ATCC HTB77), die humane Glioblastom Zelllinie SF-268 (NCI 503138) und die Lungenkarzinom Zelllinie NCI-H460 (NCI 503473). Des weiteren wurde zur Untersuchung der Zellzyklus-spezifischen Wirkung der Substanz ein RKOp27 Zellsystem verwendet (M. Schmidt et al. Oncogene19(20):2423-9, 2000). Bei RKO handelt es sich um eine humane Kolonkarzinomlinie, in der der Zellzyklusinhibitor p27 ^kip1 mittels des Ecdyson Expressionssystems induziert zur Expression gebracht und zu einem Zellzyklusarrest spezifisch in G2 geführt werden kann. Eine unspezifisch wirkende Substanz hemmt die Proliferation unabhängig davon, ob die RKO Zelle in G1 oder G2 arretiert ist oder nicht. Zellzyklus-spezifische Substanzen wie beispielsweise Tubulininhibitoren sind hingegen nur dann zytotoxisch, wenn Zellen nicht arretiert sind und der Zellzyklus durchlaufen wird. In Tabelle 1 ist die zytotoxische bzw. wachstumshemmende Aktivität der beschriebenen Verbindungen mit / ohne Expression von p27^kip1gezeigt. Die getesteten Verbindungen zeigten im induzierten Zustand von p27^kiP1 keine zytotoxische Aktivität. Die Ergebnisse zeigen eine sehr potente Hemmung der Proliferation ausgewählter Tumorzelllinien durch die genannten Substanzen.

KB/HeLa Zellen = experiment: Cell cycle analysis (G2/M arrest); assay type: cell-based; conditions: Homo sapiens, read-out: EC50 in nM (50% cells in G2/M)
Protocol: Für die Zellzyklusanalyse wurden KB/HeLa Zellen mit den Testsubstanzen in unterschiedlichen Konzentrationen (0.1-1000 nM) 24 Stunden bei 37°C behandelt.
Der prozentuale Anteil der in der G2/M Phase des Zellzyklus arrettierten Zellen nach Behandlung mit Referenz- oder ausgewählten Testsubstanzen ist in der nachfolgenden Tabelle 5 dargestellt. Die Ergebnisse wurden mit einer speziellen Analysesoftware (ModFit™) ausgewertet.

L1210 = experiment: XTT proliferation assay, L1210 (wild type); assay type: cell-based, murine
Text: as §1, with “Substanzen. Tabelle 1:” for “Substanzen.”
Zur weiteren Charakterisierung wurden die Substanzen 1,2,4-6 gegenüber multi drug resistenten Zelllinien im Vergleich zu den nicht-resistenten Wildtypzelllinien untersucht.
Bei den untersuchten Zelllinien handelt es sich um die murine L1210, die akute myeloische Leukaemie Zelllinie LT12 und um die resistenten Linien L1210/mdr und LT12/mdr. Außerdem wurden die murine P388 Zelllinie (methyl-cholanthreneinduced lymphoid neoplasm) sowie die Doxorubicin-resistente P388 als Testsysteme herangezogen.

SF-268 = experiment: XTT proliferation assay, SF-268; assay type: cell-based; conditions: Homo sapiens, read-out: XTT Proliferationsassay, EC50 SF-268
Text: as §1

U-937 Zelllinie = experiment: CDDplus nucleosome ELISA (apoptosis detection); assay type: cell-based; conditions: U-937, 0.1-1000nM, 4-24h
Protocol: Zum Nachweis der Nucleosomen Partikel wurde der von der Firma Roche Molecular Biochemicals beschriebene CDD^plus Nucleosomen ELISA Test eingesetzt. Hierzu untersuchte man die Verbindung 2 an der U-937 Zelllinie bei unterschiedlichen Konzentrationen (0.1-1000nM) und bei unterschiedlicher zeitlicher Behandlung (4-24h) (s. Graph 7). [formula]

[1] = system: Salmonella thyphimurium TA98; assay type: cell-based; conditions: for AMES TA98 mit S9: with rat liver S9; for AMES TA98 ohne S9: without S9
Protocol: (§2) Die Verbindung 2 wurde in einem Fluktuationsassay gegenüber den Mutanten-Stämmen TA98 und TA100 des Bakteriums Salmonella thyphimurium bei drei Konzentrationen (2.5; 5 und 10µM) auf Mutagenität hin untersucht. Die Mutagenitätsuntersuchungen wurden ferner in Gegenwart des Rattenleberenzyms S9 durchgeführt.

[2] = system: Salmonella thyphimurium TA100; assay type: cell-based; conditions: for AMESTA100 mit S9: with rat liver S9; for AMESTA100 ohne S9: without S9
Protocol: as §2

Compound	EC50 (NCI-H460)	EC50 (KB/HeLa Zellen; KB/HeLa, 24 h at 37°C, 0.1-1000 nM)	EC50 (L1210; Mus musculus, L1210; read-out: XTT Proliferationsassay, EC50 L1210)	EC50 (SF-268)	Nucleosomen im Zelllysat (U-937 Zelllinie; cell lysate)	Nucleosomen im Zellkulturüberstand (U-937 Zelllinie; culture supernatant)	EC50 (KB/HeLa Zellen; HeLa, 24 h)	EC50 (L1210; Mus musculus, L1210, read-out: XTT Proliferationsassay, EC50 L1210)	AMES TA98 mit S9 ([1]; 2.5 µM)	AMES TA98 ohne S9 ([1]; 2.5 µM)	AMES TA98 mit S9 ([1]; 5 µM)	AMES TA98 ohne S9 ([1]; 5 µM)	AMES TA98 mit S9 ([1]; 10 µM)	AMES TA98 ohne S9 ([1]; 10 µM)	AMESTA100 mit S9 ([2]; 2.5 µM)	AMESTA100 ohne S9 ([2]; 2.5 µM)	AMESTA100 mit S9 ([2]; 5 µM)	AMESTA100 ohne S9 ([2]; 5 µM)	AMESTA100 mit S9 ([2]; 10 µM)	AMESTA100 ohne S9 ([2]; 10 µM)
O=C(Nc1cnc2nccnc2c1)C(=O)c1cn(Cc2ccc(Cl)cc2)c2ccccc12 [Verbindung 5, 2-[1-(4-Chlor-benzyl)-1H-indol-3-yl]-2-oxo-N-pyrido[2,3-b]pyrazin-7-yl-acetamid]	0.046 µg/mL (≈ 0.104 µM)	31.9 nM	0.018 µg/mL (≈ 0.0407 µM)	0.042 µg/mL (≈ 0.095 µM)	–	–	–	–	–	–	–	–	–	–	–	–	–	–	–	–
O=C(Nc1ccc2ncccc2c1)C(=O)c1cn(Cc2ccc(Cl)cc2)c2ccccc12 [Verbindung 2, 2-[1-(4-Chlor-benzyl)-1 H-indol-3-yl]-2-oxo-N-chinolin-6-yl-acetamid]	0.054 µg/mL (≈ 0.123 µM)	–	–	0.027 µg/mL (≈ 0.0614 µM)	konzentrations- und zeitabhängiger Anstieg von Nucleosomen im Zelllysat	kein signifikanter Anstieg	52.3 nM	0.074 µg/mL (≈ 0.168 µM)	inaktiv	inaktiv	inaktiv	inaktiv	inaktiv	inaktiv	inaktiv	inaktiv	inaktiv	inaktiv	inaktiv	inaktiv
